Where two headings read alike, the source gives them in different places.
Key:
SARS-CoV-2 3CL-protease = SARS-CoV-2 3CL-protease (Severe acute respiratory syndrome coronavirus 2, UniProt P0DTD1); assay: SARS-CoV-2 3C-Like (3CL) Protease Fluorescence Assay (FRET); assay type: biochemical; details: test compounds 0-10 μM, duplicate
[1] = tested on: 229E human corona virus (hCoV); assay: 229E live virus assay (MRC-5 cells, CPE, ATPlite readout); assay type: cell-based, hCoV-229E; details: Human coronavirus 229E, MRC5, 144 h, read-out: 229E EC50
[2] = SARS-CoV-2 3CL-protease 10 nM, read-out: IC50
[3] = hCoV-229E in MRC-5 cells, MOI 0.05, 6 days at 34° C., ATPlite, run in duplicate
[4] = IC50, SARS-CoV-2 3CL-protease 10 nM

Compound	IC50 (SARS-CoV-2 3CL-protease; [2])	EC50 [1, 3]	IC50 (SARS-CoV-2 3CL-protease; [4])	EC50 [1]
C[C@H](NC(=O)c1ccc(OC(F)(F)F)cc1)C(=O)N(C)[C@@H](CC(C)(C)C)C(=O)N1C[C@]2(C[C@H]1C#N)C(=O)Nc1ccccc12 [Example 153]	< 100 nM	< 100 nM		
CC(C)C[C@@H](C(=O)N1C[C@]2(C[C@H]1C#N)C(=O)Nc1ccccc12)N(C)C(=O)[C@@H]1CCCN1C [Example 160]	< 100 nM	< 100 nM		
CC(C)C[C@@H](C(=O)N1C[C@]2(C[C@H]1C#N)C(=O)Nc1ccccc12)N(C)C(=O)[C@H](C)NC(=O)c1ccc(F)c(-c2ccc(F)cc2)c1 [Example 151]	< 100 nM	100 to 1000 nM		
C[C@H](NC(=O)c1ccc(F)c(Cl)c1)C(=O)N(C)[C@@H](CC(C)(C)C)C(=O)N1C[C@]2(C[C@H]1C#N)C(=O)Nc1ccccc12 [Example 155]	< 100 nM	< 100 nM		
CC(C)C[C@@H](C(=O)N1C[C@]2(C[C@H]1C#N)C(=O)Nc1ccccc12)N(C)C(=O)[C@H](C)NC(=O)C(F)(F)C(F)(F)C(F)(F)F [Example 137]			< 100 nM	< 100 nM
Cc1cc(C(=O)N[C@@H](C)C(=O)N(C)[C@@H](CC(C)C)C(=O)N2C[C@]3(C[C@H]2C#N)C(=O)Nc2ccccc23)no1 [Example 166]	< 100 nM	< 100 nM		
Cc1ncc(C(=O)N[C@@H](C)C(=O)N(C)[C@@H](CC(C)C)C(=O)N2C[C@]3(C[C@H]2C#N)C(=O)Nc2ccccc23)s1 [Example 163]	< 100 nM	< 100 nM		
CC(C)C[C@@H](C(=O)N1C[C@]2(C[C@H]1C#N)C(=O)Nc1ccccc12)N(C)C(=O)[C@@H]1CC[C@@H](c2ccccc2)N1C(C)C [Example 162]	< 100 nM	< 100 nM		
CC(C)C[C@@H](C(=O)N1C[C@]2(C[C@H]1C#N)C(=O)Nc1ccccc12)N(C)C(=O)[C@@H]1CC[C@@H](c2ccccc2)N1 [Example 158]	< 100 nM	< 100 nM		
[2H]C([2H])([2H])N(C(=O)[C@H](CC1CC1)NC(=O)c1ccc(F)cc1)[C@@H](CC1CC1)C(=O)N1C[C@]2(C[C@H]1C#N)C(=O)Nc1ccccc12 [Example 140]	< 100 nM	< 100 nM		
CC(C)C[C@@H](C(=O)N1C[C@]2(C[C@H]1C#N)C(=O)Nc1ccccc12)N(C)C(=O)[C@H](C)NC(=O)c1ccc(F)cn1 [Example 164]	< 100 nM	< 100 nM		
CC(C)C[C@@H](C(=O)N1C[C@]2(C[C@H]1C#N)C(=O)Nc1ccccc12)N(C)C(=O)[C@@H]1CCCN1C(C)C [Example 161]	< 100 nM	< 100 nM		
CC(C)C[C@@H](C(=O)N1C[C@]2(C[C@H]1C#N)C(=O)Nc1ccccc12)N(C)C(=O)[C@H](C)NC(=O)c1ccccc1-c1ccc(C(F)(F)F)cc1 [Example 150]	< 100 nM	100 to 1000 nM		
CC(C)C[C@H]1C(=O)N2C[C@]3(C[C@H]2C#N)C(=O)Nc2ccc(cc23)CCCCC[C@H](NC(=O)OC(C)(C)C)C(=O)N1C [Example 373]	< 100 nM	100 to 1000 nM		
CC(C)[C@H](NS(=O)(=O)c1ccc(F)cc1)C(=O)N(C)[C@@H](CC(C)(C)C)C(=O)N1C[C@]2(C[C@H]1C#N)C(=O)Nc1ccccc12 [Example 111]			< 100 nM	100 to 1000 nM
Cc1cccc(C)c1C(=O)N[C@@H](C)C(=O)N(C)[C@@H](CC(C)C)C(=O)N1C[C@]2(C[C@H]1C#N)C(=O)Nc1ccccc12 [Example 148]	< 100 nM	< 100 nM		
C[C@H](NC(=O)C(F)(F)C(F)(F)F)C(=O)N(C)[C@@H](CC(C)(C)C)C(=O)N1C[C@]2(C[C@H]1C#N)C(=O)Nc1ccccc12 [Example 133]		< 100 nM	< 100 nM	
C[C@H](NC(=O)c1ccc(F)cc1F)C(=O)N(C)[C@@H](CC(C)(C)C)C(=O)N1C[C@]2(C[C@H]1C#N)C(=O)Nc1ccccc12 [Example 154]	< 100 nM	< 100 nM		
CC(C)(C)C(NC(=O)OCc1ccccc1)C(=O)N1CCC[C@H]1C(=O)N1C[C@]2(C[C@H]1C#N)C(=O)Nc1ccccc12 (stereo partly shown) [Example 55]			100 to 1000 nM	> 1000 nM
C[C@H](NC(=O)c1ccc(F)c(F)c1)C(=O)N(C)[C@@H](CC(C)(C)C)C(=O)N1C[C@]2(C[C@H]1C#N)C(=O)Nc1ccccc12 [Example 156]	< 100 nM	< 100 nM		

From patent US20260138988A1, “Spiropyrrolidine Derived Antiviral Agents” (Enanta Pharmaceuticals, Inc., priority 2021, published 2026)
